Paper PMC3599263 (DARU Journal of Pharmaceutical Sciences, 2013)
Read-outs that look alike come from different tables or passages of the source.

How the values were obtained:
[1] = biological target: AChE (E.C. 3.1.1.7, Type V-S, from electric eel) (Electrophorus electricus, UniProt O42275); assay: biochemical
BuChE from equine serum = biological target: T1, BuChE from equine serum (Equus caballus, UniProt P81908); assay: biochemical
T1 construct: BuChE from equine serum; purchased Sigma-Aldrich (Steinheim, Germany); host or cells: equine serum
T1 sequence (P81908 whole entry): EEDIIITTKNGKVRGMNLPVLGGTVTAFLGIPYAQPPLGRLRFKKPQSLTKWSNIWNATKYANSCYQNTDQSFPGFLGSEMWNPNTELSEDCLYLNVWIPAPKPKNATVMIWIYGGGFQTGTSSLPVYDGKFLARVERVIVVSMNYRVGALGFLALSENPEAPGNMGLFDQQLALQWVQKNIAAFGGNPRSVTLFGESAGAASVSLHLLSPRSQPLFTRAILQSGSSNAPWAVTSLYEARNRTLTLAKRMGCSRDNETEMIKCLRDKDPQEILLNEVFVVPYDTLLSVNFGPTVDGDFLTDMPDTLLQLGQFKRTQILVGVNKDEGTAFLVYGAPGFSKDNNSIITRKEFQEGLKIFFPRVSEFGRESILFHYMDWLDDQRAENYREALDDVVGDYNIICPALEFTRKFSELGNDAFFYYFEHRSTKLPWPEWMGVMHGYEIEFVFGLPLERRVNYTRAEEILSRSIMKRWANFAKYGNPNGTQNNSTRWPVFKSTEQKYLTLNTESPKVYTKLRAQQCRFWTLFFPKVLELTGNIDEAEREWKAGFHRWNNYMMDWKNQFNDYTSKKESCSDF

AChE (E.C. 3.1.1.7, Type V-S, from electric eel), sequence (O42275 24-633): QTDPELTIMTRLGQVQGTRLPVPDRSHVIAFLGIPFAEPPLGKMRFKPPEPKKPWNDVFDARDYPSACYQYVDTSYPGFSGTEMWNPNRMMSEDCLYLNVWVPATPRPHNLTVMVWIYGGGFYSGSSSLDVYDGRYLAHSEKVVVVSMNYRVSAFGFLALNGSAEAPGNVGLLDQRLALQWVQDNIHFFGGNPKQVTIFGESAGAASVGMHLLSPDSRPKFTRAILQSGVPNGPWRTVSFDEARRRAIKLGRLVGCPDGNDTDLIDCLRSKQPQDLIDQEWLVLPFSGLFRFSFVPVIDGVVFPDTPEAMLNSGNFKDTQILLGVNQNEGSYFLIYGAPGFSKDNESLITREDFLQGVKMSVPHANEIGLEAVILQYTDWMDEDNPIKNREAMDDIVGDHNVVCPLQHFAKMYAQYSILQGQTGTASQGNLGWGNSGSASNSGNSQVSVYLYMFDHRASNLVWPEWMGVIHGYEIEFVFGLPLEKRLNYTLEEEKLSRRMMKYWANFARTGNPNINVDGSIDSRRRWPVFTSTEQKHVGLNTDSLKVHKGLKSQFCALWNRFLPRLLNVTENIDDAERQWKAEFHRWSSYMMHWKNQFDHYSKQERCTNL

Row | Structure (SMILES) | IC50 [1] | IC50 (BuChE from equine serum) | IC50 (BuChE from equine serum; Ellman's method, 25°C, pH 8.0, 15 min pre-incubation, mean ± SD of three independent experiments, read-out: BuChE (IC50 ± SD))
1 | COc1cc2c(cc1OC)C(=O)/C(=C/c1cc[n+](Cc3ccccc3)cc1)O2 [5a, (Z)-1-Benzyl-4-((5,6-dimethoxy-3-oxobenzofuran-2(3H)-ylidene)methyl) pyridinium bromide] | 86 ± 10.9 nM | 1400 ± 85 nM | –
2 | COc1cc2c(cc1OC)C(=O)/C(=C/c1cc[n+](Cc3ccc(C)cc3)cc1)O2 [5g, (Z)-1-(4-Methylbenzyl)-4-((5,6-dimethoxy-3-oxobenzofuran-2(3H)-ylidene)methyl) pyridinium chloride] | 514 ± 29.5 nM | – | 7600 ± 260 nM
